Experiment [1] concerns 293T cell line. The experiment in a line: CCK8 cell viability (toxicity) assay in 293T cell line. The experiment is classed as cell-based. To be noted: Homo sapiens, HEK-293T; CCK8 toxicity test, 293T cell line. The source says: (§1) The CCK8 cell viability assay (CCK8) was adopted. Its principle is mainly based on the reduction reaction of WST-8 (chemical name: 2-(2-methoxy-4-nitrophenyl)-3-(4-nitrophenyl)-5-(2,4-disulfophenyl)-2H-tetrazolium monosodium salt). In the presence of living cells, WST-8 can be reduced by dehydrogenases in mitochondria to generate a highly water-soluble orange-yellow formazan product. The color intensity is directly proportional to the number of living cells, wherein the quantity of living cells can be indirectly reflected by measuring the absorbance of formazan products (typically at a wavelength of 450 nm). The CCK-8 assay is widely used in cell proliferation assay, cytotoxicity assay and tumor drug sensitivity test.
In in vitro experiments, the compound stock solution was prepared into 10 mM with DMSO and diluted with a culture medium before use. The 293T cell line was used for preliminary concentration screening of the compound, wherein concentration gradients were set as follows: 5 µmol, 10 µmol, 20 µmol, 40 µmol, 80 µmol and 160 µmol. After the cells were treated with the compound for 24 h, the CCK8 detection kit was used, wherein the cell viability was calculated based on the absorbance values detected by a microplate reader. Data processing was performed using GraphPad Prism software to plot the IC50 curve.

The test system of experiment [2] is primary neurons. The experiment in a line: CCK8 cell viability (toxicity) assay in primary neurons. The format is cell-based, mouse. The settings on record: Mus musculus, Primary neuron, CCK8 toxicity test.
Source text: as §1
Primary hippocampal neuron culture: After ICR fetal mice at 18-21 days of gestation (E18-E21) were anesthetized, the fetal mice were dissected in a clean area and immersed in 75% ethanol for 1-2 min. The mouse head was taken out, the surface skull was removed with micro-scissors, and the brain tissue was transferred to an anatomical dissociation solution. Under a microscope, blood vessels and meninges were removed, hippocampal tissue was isolated, the extracted hippocampal tissue was placed in a 3.5 cm dish containing the anatomical dissociation solution, and the hippocampal tissue was cut into small fragments using micro-scissors. The minced hippocampal tissue was transferred to a 7 ml EP tube using a pipette gun. The hippocampal tissue hereinabove was centrifuged at 1000 rpm for 3-5 min, and the anatomical separation solution was discarded. 0.5-1 ml of papain digestion solution was added to the EP tube hereinabove, and the EP tube was placed in a 37°C incubator for 30 min. 300 µL of Trituration buffer 300 (DNase) and 5 mL of complete medium were added, and the hippocampal tissue was gently pipetted more than 10 times. The cell suspension was allowed to stand for 3 min, and 3-4 ml of supernatant was gently aspirated into a 15 ml tube using a pipette. 3-4 ml of complete medium was added again, and the hippocampal tissue was gently pipetted more than 10 times. Step 8 was repeated, and 3-4 ml of supernatant was transferred to the same 15 ml tube again. The previous step was repeated again. The collected supernatant was centrifuged at 1000 rpm, the supernatant was discarded, and 5 ml of complete medium was added. The mixture was gently pipetted and suspended, and then centrifuged again at 1000 rpm for 5 min. The complete medium was added to resuspend the cells, and then a portion of the cells was aspirated for counting. Generally, when neuronal cells were planted in a 24-well plate, the concentration of the cell suspension was generally 2×10^5/ml, and 500 µl of cells is inoculated per well. The resuspended neuron cells with a diluted ratio were seeded onto a glass slide treated with PDL, then the glass slide was placed in a 37°C incubator for 10 min, an appropriate amount of complete medium was added, and then the culture is continued in the incubator.
A general note: Tetrazolium dyes change colour on reduction, which living cells bring about.

`O=C(NC1CN(c2ccncn2)CC1CO)c1ccc2ncccc2c1` (centres unmarked) [compound of Formula II, N-[4-(HYDROXYMETHYL)-1-(PYRIMIDIN-4-YL)PYRROLIDIN-3-YL]QUINOLINE-6-CARBOXAMIDE]: the IC50 (as a rule, the point on the concentration scale where inhibition reaches its midpoint) was 38.6 µM in experiment [1] and 1.67 µM in experiment [2].
